In patent US20100056596A1, “RESISTANCE-REPELLENT RETROVIRAL PROTEASE INHIBITORS” (Sequoia Pharmaceuticals, priority 2004, published 2010):
Like-named read-outs stand apart in the source and are kept apart here.

Key:
HIV-1 isolates, Mutant 9 = assay: In vitro drug sensitivity of HIV-1 laboratory isolates, Mutant 9; format: cell-based
Description: (§1) In Vitro Drug Sensitivity of HIV-1 Laboratory Isolates to PIs
(§2) The sensitivities of HIV-1 isolates against compounds of the invention were determined as previously described with minor modifications (Shiraska et al., Proc. Natl. Acad. Sci. USA, 92, 2398-2402 (1995)).

HIV-1 protease Mutant 8 = HIV-1 protease Mutant 8 (Human immunodeficiency virus type 1, UniProt P04585); assay: Ki against HIV-1 protease Mutant 8; format: biochemical
wild type HIV-1 protease = molecular target: T1, wild type HIV-1 protease (Human immunodeficiency virus type 1 group M subtype B, UniProt P04585); assay: Ki against wild type (WT) HIV-1 protease; format: biochemical
T1 construct: over 45 of the 99 amino acids of the HIV protease monomer

HIV-1 isolates, Mutant 8 = assay: In vitro drug sensitivity of HIV-1 laboratory isolates, Mutant 8; format: cell-based
Description: as §1, §2

HIV-1 protease Mutant 9 = HIV-1 protease Mutant 9 (Human immunodeficiency virus type 1, UniProt P04585); assay: Ki against HIV-1 protease Mutant 9; format: biochemical
HIV-1 isolates, WT = assay: In vitro drug sensitivity of HIV-1 laboratory isolates, WT; format: cell-based
Description: as §1, §2

[1] = Human immunodeficiency virus 1, read-out: IC50 Mutant 9
[2] = Human immunodeficiency virus 1, read-out: IC50 Mutant 8
[3] = Human immunodeficiency virus 1, HIV-1 isolate WT
[4] = Mutant 9, read-out: IC50 Mutant 9
[5] = Mutant 8, read-out: IC50 Mutant 8

Row | Structure (SMILES) | IC50 (HIV-1 isolates, Mutant 9; [1]) [nM] | Ki (HIV-1 protease Mutant 8; Mutant 8) [nM] | Ki (wild type HIV-1 protease; WT) [nM] | IC50 (HIV-1 isolates, Mutant 8; [2]) [nM] | Ki (HIV-1 protease Mutant 9; Mutant 9) [nM] | IC50 (HIV-1 isolates, WT; Human immunodeficiency virus 1) [nM] | Ki (HIV-1 protease Mutant 8; HIV-1 protease Mutant 8) [nM] | Ki (wild type HIV-1 protease; wild type HIV-1 protease) [nM] | Ki (HIV-1 protease Mutant 9; HIV-1 protease Mutant 9) [nM] | IC50 (HIV-1 isolates, WT; [3]) [nM] | IC50 (HIV-1 isolates, Mutant 9; [4]) [nM] | IC50 (HIV-1 isolates, Mutant 8; [5]) [nM] | IC50 (HIV-1 isolates, WT; WT) [nM]
1 | CCCNc1n[nH]c2ccc(S(=O)(=O)N(CC(C)C)CC(O)C(Cc3ccccc3)NC(=O)OC3COC4OCCC34)cc12 (centres unmarked) [Compound 305] | 180 | < 0.3 | < 0.1 | 30 | 0.66 | 16 | – | – | – | – | – | – | –
2 | CC(C)CN(CC(O)C(Cc1ccccc1)NC(=O)OC1COC2OCCC12)S(=O)(=O)c1ccc2onc(CNCC3CCCCC3)c2c1 (centres unmarked) [Compound 238] | 55 | – | – | 35 | – | – | < 0.3 | < 0.1 | < 0.1 | 7.5 | – | – | –
3 | CC(C)CN(CC(O)C(Cc1ccccc1)NC(=O)OC1COC2OCCC12)S(=O)(=O)c1ccc2onc(CSCC(F)(F)F)c2c1 (centres unmarked) [Compound 233] | > 400 | – | – | 36 | – | – | < 0.3 | < 0.1 | 3.4 | 4 | – | – | –
4 | CC(C)CN(C[C@@H](O)[C@H](Cc1ccccc1)NC(=O)OC1COC2OCCC12)S(=O)(=O)c1ccc2occ(CNCC(=O)OC(C)(C)C)c2c1 (some centres unmarked) [Compound 110] | – | < 0.3 | < 0.1 | – | 0.32 | – | – | – | – | – | 62 | 33 | 3.4
5 | CC(=O)N(Cc1noc2ccc(S(=O)(=O)N(CC(C)C)CC(O)C(Cc3ccccc3)NC(=O)OC3COC4OCCC34)cc12)CC(F)(F)F (centres unmarked) [Compound 247] | > 400 | – | – | 29 | – | – | < 0.3 | < 0.1 | 1.1 | 5.4 | – | – | –
6 | CC(C)CN(C[C@@H](O)[C@H](Cc1ccccc1)NC(=O)OC1CO[C@H]2OCC[C@@H]12)S(=O)(=O)c1ccc2c(c1)CC(CO)O2 (some centres unmarked) | 500 | 0.38 | < 0.1 | 47 | 9 | 5.4 | – | – | – | – | – | – | –
7 | CCS(=O)(=O)N(CCOC)Cc1noc2ccc(S(=O)(=O)N(CC(C)C)CC(O)C(Cc3ccccc3)NC(=O)OC3COC4OCCC34)cc12 (centres unmarked) [Compound 227] | 80 | – | – | 27 | – | – | 0.41 | < 0.1 | 2.6 | 3.6 | – | – | –
8 | CC(C)CN(CC(O)C(Cc1ccccc1)NC(=O)OC1COC2OCCC12)S(=O)(=O)c1ccc2onc(CNCc3ccc4occc4c3)c2c1 (centres unmarked) [Compound 248] | 54 | – | – | 24 | – | – | < 0.3 | < 0.1 | 0.33 | 7.9 | – | – | –
9 | CCSCCNCc1noc2ccc(S(=O)(=O)N(CC(C)C)CC(O)C(Cc3ccccc3)NC(=O)OC3COC4OCCC34)cc12 (centres unmarked) [Compound 226] | 38 | – | – | 16 | – | – | < 0.3 | < 0.1 | < 0.1 | 5.5 | – | – | –
10 | CC(C)CN(CC(O)C(Cc1ccccc1)NC(=O)OC1COC2OCCC12)S(=O)(=O)c1ccc2onc(COC(=O)C(C)C)c2c1 (centres unmarked) [Compound 215] | 55 | – | – | 15 | – | – | < 0.3 | < 0.1 | 0.75 | 11 | – | – | –
11 | CCCOC(=O)NCc1noc2ccc(S(=O)(=O)N(CC(C)C)CC(O)C(Cc3ccccc3)NC(=O)OC3COC4OCCC34)cc12 (centres unmarked) [Compound 222] | 45 | – | – | 12 | – | – | < 0.3 | < 0.1 | 0.19 | 3 | – | – | –
12 | CC(=O)OCc1noc2ccc(S(=O)(=O)N(CC(C)C)CC(O)C(Cc3ccccc3)NC(=O)OC3COC4OCCC34)cc12 (centres unmarked) [Compound 205] | 68 | – | – | 23 | – | – | < 0.3 | < 0.1 | 0.23 | 10 | – | – | –
13 | CC(C)CN(CC(O)C(Cc1ccccc1)NC(=O)OC1COC2OCCC12)S(=O)(=O)c1ccc2onc(CSC(C)C)c2c1 (centres unmarked) [Compound 209] | 210 | – | – | 50 | – | – | < 0.3 | < 0.1 | 2.3 | 3.5 | – | – | –
14 | COCCNCc1noc2ccc(S(=O)(=O)N(CC(C)C)CC(O)C(Cc3ccccc3)NC(=O)OC3COC4OCCC34)cc12 (centres unmarked) [Compound 219] | 40 | – | – | 9 | – | – | < 0.3 | < 0.1 | 0.37 | 4 | – | – | –
15 | CCC(=O)NCc1coc2ccc(S(=O)(=O)N(CC(C)C)C[C@@H](O)[C@H](Cc3ccccc3)NC(=O)OC3COC4OCCC34)cc12 (some centres unmarked) [Compound 113] | – | < 0.3 | < 0.1 | – | < 0.1 | – | – | – | – | – | 50 | 20 | 7
16 | CC(=O)NCc1noc2ccc(S(=O)(=O)N(CC(C)C)CC(O)C(Cc3ccccc3)NC(=O)OC3COC4OCCC34)cc12 (centres unmarked) [Compound 214] | 31 | – | – | 28 | – | – | < 0.3 | < 0.1 | < 0.1 | 42 | – | – | –
17 | CC(C)CN(C[C@@H](O)[C@H](Cc1ccccc1)NC(=O)OC1COC2OCCC12)S(=O)(=O)c1ccc2occ(CN3CCCCC3)c2c1 (some centres unmarked) [Compound 109] | – | < 0.3 | < 0.1 | – | 2.8 | – | – | – | – | – | > 400 | 30 | 2
18 | CCOC(=O)NCc1coc2ccc(S(=O)(=O)N(CC(C)C)C[C@@H](O)[C@H](Cc3ccccc3)NC(=O)OC3COC4OCCC34)cc12 (some centres unmarked) [Compound 112] | – | < 0.3 | < 0.1 | – | < 0.1 | – | – | – | – | – | 29 | 11 | 1.8
19 | CC(C)CN(CC(O)C(Cc1ccccc1)NC(=O)OC1COC2OCCC12)S(=O)(=O)c1ccc2onc(CNC(=O)OC(C)C)c2c1 (centres unmarked) [Compound 212] | > 400 | – | – | 30 | – | – | < 0.3 | < 0.1 | 0.34 | 5 | – | – | –
20 | CCOC(=O)NCc1cc2cc(S(=O)(=O)N(CC(C)C)CC(O)C(Cc3ccccc3)NC(=O)OC3COC4OCCC34)ccc2o1 (centres unmarked) [Compound 121] | > 400 | < 0.3 | < 0.1 | 21 | 1.6 | 8 | – | – | – | – | – | – | –
21 | CC(C)CN(CC(O)C(Cc1ccccc1)NC(=O)OC1COC2OCCC12)S(=O)(=O)c1ccc2onc(CNCC(F)(F)C(F)(F)F)c2c1 (centres unmarked) [Compound 228] | 26 | – | – | 9.5 | – | – | < 0.3 | 0.12 | 0.2 | 4.5 | – | – | –
22 | CC(C)CN(CC(O)C(Cc1ccccc1)NC(=O)OC1COC2OCCC12)S(=O)(=O)c1ccc2occc2c1 (centres unmarked) [Compound 101, {3-[(Benzofuran-5-sulfonyl)-isobutyl-amino]-1-benzyl-2-hydroxy-propyl}-carbamic acid hexahydro-furo[2,3-b]furan-3-yl ester] | 120 | < 0.3 | < 0.1 | 16 | 0.5 | 1.6 | – | – | – | – | – | – | –
23 | Cc1ccc(S(=O)(=O)N(C)Cc2noc3ccc(S(=O)(=O)N(CC(C)C)CC(O)C(Cc4ccccc4)NC(=O)OC4COC5OCCC45)cc23)cc1 (centres unmarked) [Compound 211] | 300 | – | – | 51 | – | – | < 0.3 | < 0.1 | 1.7 | 2.1 | – | – | –
24 | CC(C)CN(C[C@@H](O)[C@H](Cc1ccccc1)NC(=O)OC1CO[C@H]2OCC[C@@H]12)S(=O)(=O)c1ccc2c(c1)C(C)CO2 (some centres unmarked) | 900 | – | < 0.1 | 56 | 7.5 | 1.5 | – | – | – | – | – | – | –
